Source: patent US12527817B2, “Manufacturing of selenium disulfide compositions” (Azura Ophthalmics Ltd., priority 2020, dated 2026)

Test: Particle size analysis under a microscope (400x magnification)
Format: physicochemical
Details: mixing liquid petrolatum at 60° C. with micronized SeS2, 400× microscope magnification
Procedure: FIG. 4 illustrates SeS2 formulation obtained mixing liquid petrolatum at a temperature of 60° C. with micronized SeS2 at 400× microscope magnification showing the presence of SeS2 particles larger than 25 microns.
FIG. 3 illustrates a 1% SeS2 (w/w) formulation obtained using the low temperature process.
The active ingredient was SeS2, wherein the particle size distribution D90 is less than 10 microns. The base medium was USP grade petrolatum. A reaction vessel capable of accepting a high shear mixing apparatus was charged with the USP grade petrolatum. In order to create uniform particles distribution in the petrolatum, high shear mixing was applied to disperse the particles. Addition of the active ingredients to the bulk while the whole bulk is agitated is essential in order to properly disperse the active ingredient, the high shear head was used to break the agglomerates to primary particles creating a uniform and homogeneous paste.

## S=[Se]=S [SeS2, selenium disulfide]
  SeS2 particle size: over 25 microns
